Measurements as given in patent publication US11485751B2, “Apramycin derivatives” (WAYNE STATE UNIVERSITY, priority 2017, dated 2022).
Values after ≈ are worked out from the molar mass of the structure shown.

Assays:
[1] = system: Engineered E. coli pH426 rmtC; test: Activity against G1405-methylated 16S-rRNA, E. coli pH426 rmtC; format: cell-based
Summary of the method: (§1)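 Read-out is the minimal inhibitory concentration, obtained in broth microdilution run according to CLSI guidelines (M07-A10).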

[2] = system: clinical isolates carrying APH(3′)-II; test: MIC broth microdilution, APH(3′)-II; format: cell-based; conditions: clinical isolates, IMM Univ. Zurich; APH(3′)-II; read-out: MIC APH(3′)-II
Description: (§2) Minimal inhibitory concentrations (MIC) have been determined by broth microdilution assays (CLSI. Methods for Dilution Antimicrobial Susceptibility Tests for Bacteria That Grow Aerobically; Approved Standard—Tenth Edition. CLSI document M07-A10. Wayne, Pa.: Clinical and Laboratory Standards Institute; 2015.).
(§3) Minimal inhibitory concentrations (MICs, […]) against clinical isolates from Institute of Medical Microbiology, Univ. Zurich, and the IC50 values for bacterial, human mitochondrial and human cytosolic ribosomes are indicated.

[3] = system: human cytosolic ribosomes; test: in-vitro translation assay, human cytosolic ribosomes; format: biochemical
Summary of the method: (§4)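 Each ribosome preparation (bacterial, human chimeric as the mitochondrial model, rabbit reticulocyte as the cytosolic model) drives in-vitro translation with the test compound present. Inhibition of translation gives the IC50.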

AG001 E. coli WT = test: Antibacterial activity, clinical isolate AG001; format: cell-based; parameters: unit not given here
Summary of the method: (§5)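 MIC values were determined by broth microdilution following the CLSI standard method for dilution susceptibility testing of aerobically growing bacteria.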

[4] = system: AG033 P. aer. APH(3′)-II AAC(6′)-I; test: Antibacterial activity, clinical isolate AG033; format: cell-based; parameters: unit not given here
Summary of the method: as §5

bacterial ribosomes = test: in-vitro translation assay, bacterial ribosomes; format: biochemical
Summary of the method: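 Inhibitory potency was determined as IC50 in in-vitro translation systems based on bacterial ribosomes, human chimeric (mitochondrial-type) ribosomes or rabbit reticulocyte (cytosolic) ribosomes.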

[5] = system: AG039 MRSA AAC(6′)-I ANT(4′)-I; test: Antibacterial activity, clinical isolate AG039; format: cell-based
Summary of the method: as §5

[6] = system: AG042 MRSA AAC(6′)-I ANT(4′)-I APH(2′); test: Antibacterial activity, clinical isolate AG042; format: cell-based; parameters: unit not given here
Summary of the method: as §5

[7] = system: clinical isolates carrying AAC(3)-IV; test: MIC broth microdilution, AAC(3)-IV; format: cell-based; conditions: for MIC: clinical isolates, IMM Univ. Zurich, AAC(3)-IV, read-out: MIC AAC(3)-IV
Summary of the method: (§6)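 MICs obtained by broth microdilution following CLSI M07-A10, tested against clinical isolates from the Institute of Medical Microbiology, Univ. Zurich; values in μg/ml.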

[8] = system: Engineered E. coli pH424 armA; test: Activity against G1405-methylated 16S-rRNA, E. coli pH424 armA; format: cell-based
Summary of the method: as §1

[9] = system: Engineered E. coli AG103 armA; test: Activity against G1405-methylated 16S-rRNA, E. coli AG103 armA; format: cell-based
Summary of the method: as §1

[10] = system: clinical isolates carrying APH(3′)-VI; test: MIC broth microdilution, APH(3′)-VI; format: cell-based; conditions: IMM Univ. Zurich
Description: as §2, §3

[11] = system: clinical isolates carrying APH(3′)-III; test: MIC broth microdilution, APH(3′)-III; format: cell-based; conditions: IMM Univ. Zurich
Description: as §2, §3

[12] = system: APH(3′, 5″) resistance determinant; test: Susceptibility to the APH(3′, 5″) resistance determinant; format: cell-based
Description: as §2
The introduction of a formamido group results in compounds that display increased selectivity for the bacterial ribosome over the mitochondrial (wild type and A1555G mutant) ribosomes, predictive of reduced ototoxicity.

AG032 P. aer. APH(3′)-II = test: Antibacterial activity, clinical isolate AG032; format: cell-based; parameters: unit not given here
Summary of the method: as §5

AG003 E. coli AAC(3)-II = test: Antibacterial activity, clinical isolate AG003; format: cell-based
Summary of the method: as §5

[13] = system: human mitochondrial ribosomes; test: in-vitro translation assay, human mitochondrial (human chimeric) ribosomes; format: biochemical
Summary of the method: as §4

[14] = system: clinical isolates carrying APH(3′)-I; test: MIC broth microdilution, APH(3′)-I; format: cell-based; conditions: IMM Univ. Zurich
Description: as §2, §3

[15] = system: AG212, Escherichia coli ATCC25922; test: MIC reference strain AG212; format: cell-based; conditions: Escherichia coli; reference strain ATCC25922; read-out: MIC AG212 E. coli
Summary of the method: (§7)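 MICs were determined by broth microdilution following CLSI guidelines for aerobically growing bacteria.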

[16] = system: Engineered E. coli pH430 WT; test: Activity, engineered E. coli pH430 WT; format: cell-based; conditions: wild type
Summary of the method: as §1

AG031 P. aer. APH(3′)-II = test: Antibacterial activity, clinical isolate AG031; format: cell-based; parameters: unit not given here
Summary of the method: as §5

[17] = system: AG220, Pseudomonas aeruginosa ATCC27853; test: MIC reference strain AG220; format: cell-based; conditions: Pseudomonas aeruginosa, ATCC27853, reference strain ATCC27853; read-out: MIC AG220 P. aeruginosa
Summary of the method: as §7

[18] = system: AG290, Enterobacter cloacae; test: MIC reference strain AG290; format: cell-based; conditions: Enterobacter cloacae; reference strain; read-out: MIC AG290 E. cloacae
Summary of the method: as §7

[19] = system: AG215, Klebsiella pneumonia; test: MIC reference strain AG215; format: cell-based; conditions: Klebsiella pneumoniae, reference strain; read-out: MIC AG215 K. pneumonia
Summary of the method: as §7

[20] = system: Engineered E. coli pH425 rmtB; test: Activity against G1405-methylated 16S-rRNA, E. coli pH425 rmtB; format: cell-based
Summary of the method: as §1

AG038 MRSA = test: Antibacterial activity, clinical isolate AG038; format: cell-based; parameters: unit not given here
Summary of the method: as §5

[21] = system: Engineered E. coli pH427 rmtF; test: Activity against G1405-methylated 16S-rRNA, E. coli pH427 rmtF; format: cell-based
Summary of the method: as §1

AG163 E. coli APH(3′)-I = test: Antibacterial activity, clinical isolate AG163; format: cell-based
Summary of the method: as §5

AG173 E. coli AAC(3)-IV = test: Antibacterial activity, clinical isolate AG173; format: cell-based
Summary of the method: as §5

[22] = system: AG225, Acinetobacter baumannii pittii; test: MIC reference strain AG225; format: cell-based; conditions: Acinetobacter baumannii, reference strain; read-out: MIC AG225 A. baumannii
Summary of the method: as §7

AG055 E. coli WT = test: Antibacterial activity, clinical isolate AG055; format: cell-based; parameters: unit not given here
Summary of the method: as §5

WT clinical isolates = test: MIC broth microdilution, WT; format: cell-based; conditions: read-out: MIC WT, clinical isolates, IMM Univ. Zurich; wild type
Summary of the method: as §6

isolates carrying apmA = test: MIC broth microdilution, apmA; format: cell-based; conditions: apmA resistance gene
Summary of the method: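 MICs (μg/ml) were determined by CLSI M07-A10 broth microdilution against apmA-carrying clinical isolates from the Institute of Medical Microbiology, University of Zurich.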

eukaryotic ribosomes = test: in-vitro translation assays, bacterial versus eukaryotic ribosomes; format: biochemical
Description: IC50 values for bacterial, human chimeric, and rabbit reticulocyte ribosomes have been determined by in-vitro translation assays as described previously (Proc. Nat. Ac. Sci USA 2012, 109(27):10984-10989).

ATCC19977 M. abcessus = test: MIC reference strain ATCC19977; format: cell-based; conditions: read-out: MIC ATCC19977 M. abcessus
Summary of the method: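 Values are minimal inhibitory concentrations, obtained by serial dilution of compound in broth according to CLSI guidance for aerobes.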

Row | SMILES | Activity E. coli pH426 rmtC [1] | IC50 [3] | Antibacterial activity AG001 E. coli WT (AG001 E. coli WT) | Antibacterial activity AG033 P. aer. APH(3′)-II AAC(6′)-I [4] | IC50 (bacterial ribosomes) | Antibacterial activity AG039 MRSA AAC(6′)-I ANT(4′)-I [5] | Antibacterial activity AG042 MRSA AAC(6′)-I ANT(4′)-I APH(2′) [6] | MIC [7] | Activity E. coli pH424 armA [8] | Activity E. coli AG103 armA [9] | Antibacterial activity AG032 P. aer. APH(3′)-II (AG032 P. aer. APH(3′)-II) | Antibacterial activity AG003 E. coli AAC(3)-II (AG003 E. coli AAC(3)-II) | IC50 [13] | MIC [15] | Activity E. coli pH430 WT [16] | Antibacterial activity AG031 P. aer. APH(3′)-II (AG031 P. aer. APH(3′)-II) | MIC [17] | MIC [18] | MIC [19] | Activity E. coli pH425 rmtB [20] | also measured
1 | CNC1C(OC2OC(CO)C(N)C(O)C2O)OC2CC(N)C(OC3C(N)CC(N)C(O)C3OC3OC(CO)C(OC4OC(CN)C(O)C(O)C4N)C3O)OC2C1O (stereo not drawn) [DC138, 5-O-β-(Paromobiosyl) apramycin] | 1 | 18 µM | 4 | 64 | 0.1 µM | 2-4 | 2 | > 32 µg/mL | 1 | <0.125 | 64 | 4 | 2.2 µM | 2 µg/mL | 2 | 32-64 | 16 µg/mL | 2 µg/mL | 1 µg/mL | 1 | MIC [2]: 2 µg/mL (≈ 2.4 µM); activity against the IMM clinical isolates carrying the gene for AAC(3)-IV [7]: excellent antiribosomal and antibacterial activity; MIC [10]: 4 µg/mL (≈ 4.81 µM); MIC [11]: 1 to 2 µg/mL (≈ 1.2 to 2.4 µM); susceptibility to the APH(3′, 5″) resistance determinant [12]: susceptible; MIC [14]: 16 µg/mL (≈ 19.2 µM); Antibacterial activity AG038 MRSA (AG038 MRSA): 2-4; Activity E. coli pH427 rmtF [21]: 1; Antibacterial activity AG163 E. coli APH(3′)-I (AG163 E. coli APH(3′)-I): 8; Antibacterial activity AG173 E. coli AAC(3)-IV (AG173 E. coli AAC(3)-IV): 1-2; MIC [22]: 4 µg/mL; Antibacterial activity AG055 E. coli WT (AG055 E. coli WT): 8
2 | CNC1C(OC2OC(CO)C(N)C(O)C2O)OC2CC(N)C(OC3C(N)CC(N)C(OCCO)C3O)OC2C1O (stereo not shown) [DC167, 6-O-(2-Hydroxyethyl)-apramycin] | 16 | 382 µM | 16 | 64-128 | 0.18 µM | 16-32 | 64 | > 32 µg/mL | 8 | 4 | 32-64 | 16 | 379 µM | 16 µg/mL | 8 | 32-64 | 32 µg/mL | 8 µg/mL | 4 µg/mL | 16 | MIC (WT clinical isolates): 8 µg/mL (≈ 13.7 µM); MIC (isolates carrying apmA): > 64 µg/mL; target specificity for bacterial versus human rRNA (eukaryotic ribosomes): increased target specificity; MIC (ATCC19977 M. abcessus): 2 µg/mL (≈ 3.43 µM); Antibacterial activity AG038 MRSA (AG038 MRSA): 16-32; Activity E. coli pH427 rmtF [21]: 16; Antibacterial activity AG163 E. coli APH(3′)-I (AG163 E. coli APH(3′)-I): 8-16; Antibacterial activity AG173 E. coli AAC(3)-IV (AG173 E. coli AAC(3)-IV): >128; MIC [22]: 16 µg/mL; Antibacterial activity AG055 E. coli WT (AG055 E. coli WT): 16
3 | CNC1C(OC2OC(CO)C(N)C(O)C2O)OC2CC(N)C(OC3C(N)CC(N)C(O)C3OC3OC(CNC=O)C(OCCN)C3O)OC2C1O [DC186, 5-β-[3-O-(2-Aminoethyl)-5-deoxy-5-formamido-D-ribofuranosyl] apramycin] | 4 | 105 µM | 2 | 64 | 0.06 µM | 4-8 | 4-8 | > 32 µg/mL | 2 | 0.5-1 | 32 | 2 | 69 µM | 2 to 4 µg/mL | 2 | 16 | 16 to 32 µg/mL | 1 to 2 µg/mL | 1 µg/mL | 2 | MIC [2]: 2 µg/mL (≈ 2.7 µM); MIC [10]: 2 µg/mL (≈ 2.7 µM); MIC [11]: 0.25 µg/mL (≈ 0.337 µM); susceptibility to the APH(3′, 5″) resistance determinant [12]: circumvent this problem; MIC [14]: 2 µg/mL (≈ 2.7 µM); MIC (ATCC19977 M. abcessus): 8 µg/mL (≈ 10.8 µM); Antibacterial activity AG038 MRSA (AG038 MRSA): 4; Activity E. coli pH427 rmtF [21]: 2; Antibacterial activity AG163 E. coli APH(3′)-I (AG163 E. coli APH(3′)-I): 2; Antibacterial activity AG173 E. coli AAC(3)-IV (AG173 E. coli AAC(3)-IV): 32; MIC [22]: 8 µg/mL; Antibacterial activity AG055 E. coli WT (AG055 E. coli WT): 4
